Values of other authors, collected in patent publication US20180368457A1 (Petiva Private Limited, priority 2015, published 2018).

Legend:
[1] = in vivo
[2] = intravenously administered, within 6 hours of treatment
[3] = storage temperature 25° C., relative humidity approximately 85%

Compound: O=C(CO)[C@H](O)[C@H](O)[C@H](O)CO [allulose, D-Psicose]
- glycemic index, in words [1]: low glycemic index
- excreted in the urine [2]: approximately 98%
- solubility: high solubility

Compound: OCC1O[C@H](OC[C@H]2O[C@](O)(CO)C(O)C2O)C(O)C(O)[C@@H]1O (stereo partly shown) [isomaltulose, Isomaltulose]
- glycemic index, in words [1]: very low GI
- water pick-up on storage [3]: No significant water pick-up

Compound: OC[C@H]1O[C@](O)(CO[C@H]2O[C@H](CO)[C@@H](O)[C@H](O)[C@H]2O)[C@@H](O)[C@@H]1O [trehalulose, 1-O-α-D-glucopyranosyl-β-D-fructofuranose]
- glycemic index, in words [1]: less glycemic
- solubility: more soluble in water than its structural isomers sucrose
